Measurements taken from ChEMBL document CHEMBL1138984, “Identification of phosphodiesterase-1 and 5 dual inhibitors by a ligand-based virtual screening optimized for lead evolution” (Bioorg Med Chem Lett, 2006).

The molecules below were run against T1, cGMP-specific 3',5'-cyclic phosphodiesterase (Homo sapiens, UniProt O76074) (assay: Inhibition of PDE5).

Row | IC50 [nM] | Compound
1 | 2100 | N#Cc1c(/N=C/c2ccc(-c3ccc(C(=O)O)cc3)o2)sc2c1CCCC2
2 | 1700 | N#Cc1c(N)nc(SCC(=O)Nc2ccc(F)cc2)c(C#N)c1-c1ccccc1
3 | 700 | N#Cc1c(C(F)(F)F)cc(-c2cccs2)nc1SCc1ccc(C(=O)O)cc1
4 | 3100 | O=C(O)c1ccc(-c2ccc(-c3nc(O)c4c5c(sc4n3)CCCC5)o2)cc1
5 | 6300 | Cc1ccc(-c2cc(C(=O)Nc3ccc(S(N)(=O)=O)cc3)c3ccccc3n2)s1

Further lines, the molecule ahead of its results:

Row | Compound | IC50 [nM]
6 | COc1ccccc1Nc1nc(-c2sc(N)nc2C)cs1 | 3000
7 | Cn1c(=O)[nH]c(=O)c2c1nc(S)n2CC(O)COc1ccc2ccccc2c1 (stereo not drawn) | 8700

These molecules were tested against T2, Phosphodiesterase 1 (Homo sapiens, UniProt P54750+Q01064+Q14123) (assay: Inhibition of PDE1 at 10 uM).
Type: protein assay
Parameters: scale not given: the % may be the effect or the level left

Row | Activity [%] | Compound
8 | 9 | N#CC1=C(N)OC2=C(C(=O)CCC2)C1c1ccc(OCC(=O)Nc2cccc(C(F)(F)F)c2)cc1 (stereo not drawn)
9 | 15 | Cc1cc(C)nc(NS(=O)(=O)c2ccc(NC(=O)c3cccc(NC(=O)C(F)(F)F)c3)cc2)n1
10 | 12 | CCOc1ccc2nc(SCC(=O)NCc3ccc(C(=O)O)cc3)sc2c1
11 | 25 | COc1cc(C2CC(=O)NC(SCC(=O)Nc3ccc(Br)cc3)=C2C#N)ccc1O (stereo not drawn)
12 | 9 | COc1ccc(-c2csc(-n3[nH]c(C)c(C(c4ccccc4)C(C#N)C(N)=O)c3=O)n2)cc1 (stereo not drawn)
13 | 59 | COc1cc(/C=C2\SC(=S)N(CC(=O)O)C2=O)ccc1OC(=O)c1cccs1

More lines, now with the values behind:

Row | Compound | Activity [%]
14 | Cc1cccc(NCc2n[nH]c(SCC(=O)Nc3cc([N+](=O)[O-])ccc3Cl)n2)c1 | 22
15 | COc1ccc(-c2nc(NC(=O)CSCC(=O)O)sc2C)cc1 | 21
16 | Cc1oc(C(=O)N2CCCC2C(=O)O)cc1COc1ccc2oc3ccccc3c2c1 (stereo not drawn) | 42
17 | O=C(CSc1nnc(-c2ccccc2O)o1)NNC(=O)Cc1ccccc1 | 22
18 | Cc1cc(C(=O)Nc2cccc(C(=O)O)c2)cc(S(=O)(=O)Nc2cccc(C(=O)O)c2)c1C | 49
19 | NS(=O)(=O)c1ccc(-c2ccc(/C=C3/C(=O)NN(c4cccc(C(F)(F)F)c4)C3=O)o2)cc1 | 45

The molecules below were run against T1, cGMP-specific 3',5'-cyclic phosphodiesterase (assay: Inhibition of PDE5 at 10 uM).
Parameters: scale not given: the % may be the effect or the level left

Row | Activity [%] | Compound
20 | 52 | N#CC1=C(N)OC2=C(C(=O)CCC2)C1c1ccc(OCC(=O)Nc2cccc(C(F)(F)F)c2)cc1 (stereo not drawn)
21 | 44 | Cc1cc(C)nc(NS(=O)(=O)c2ccc(NC(=O)c3cccc(NC(=O)C(F)(F)F)c3)cc2)n1
22 | 39 | CCOc1ccc2nc(SCC(=O)NCc3ccc(C(=O)O)cc3)sc2c1
23 | 23 | COc1cc(C2CC(=O)NC(SCC(=O)Nc3ccc(Br)cc3)=C2C#N)ccc1O (stereo not drawn)
24 | 42 | COc1ccc(-c2csc(-n3[nH]c(C)c(C(c4ccccc4)C(C#N)C(N)=O)c3=O)n2)cc1 (stereo not drawn)
25 | 46 | COc1cc(/C=C2\SC(=S)N(CC(=O)O)C2=O)ccc1OC(=O)c1cccs1

The next lines start with the molecule.

Row | Compound | Activity [%]
26 | Cc1cccc(NCc2n[nH]c(SCC(=O)Nc3cc([N+](=O)[O-])ccc3Cl)n2)c1 | 53
27 | COc1ccc(-c2nc(NC(=O)CSCC(=O)O)sc2C)cc1 | 51
28 | Cc1oc(C(=O)N2CCCC2C(=O)O)cc1COc1ccc2oc3ccccc3c2c1 (stereo not drawn) | 48
29 | O=C(CSc1nnc(-c2ccccc2O)o1)NNC(=O)Cc1ccccc1 | 1
30 | Cc1cc(C(=O)Nc2cccc(C(=O)O)c2)cc(S(=O)(=O)Nc2cccc(C(=O)O)c2)c1C | 19
31 | NS(=O)(=O)c1ccc(-c2ccc(/C=C3/C(=O)NN(c4cccc(C(F)(F)F)c4)C3=O)o2)cc1 | 66

What follows are molecules tested against T2, Phosphodiesterase 1 (assay: Inhibition of PDE1).
Type: protein assay

Row | IC50 [nM] | Compound
32 | 2500 | N#Cc1c(/N=C/c2ccc(-c3ccc(C(=O)O)cc3)o2)sc2c1CCCC2
33 | 5700 | N#Cc1c(N)nc(SCC(=O)Nc2ccc(F)cc2)c(C#N)c1-c1ccccc1
34 | 1900 | N#Cc1c(C(F)(F)F)cc(-c2cccs2)nc1SCc1ccc(C(=O)O)cc1
35 | 3700 | O=C(O)c1ccc(-c2ccc(-c3nc(O)c4c5c(sc4n3)CCCC5)o2)cc1
36 | 2500 | Cc1ccc(-c2cc(C(=O)Nc3ccc(S(N)(=O)=O)cc3)c3ccccc3n2)s1

The next lines start with the molecule.

Row | Compound | IC50 [nM]
37 | COc1ccccc1Nc1nc(-c2sc(N)nc2C)cs1 | 2500
38 | Cn1c(=O)[nH]c(=O)c2c1nc(S)n2CC(O)COc1ccc2ccccc2c1 (stereo not drawn) | 300
